In US11241440B2, “Dihydrooxadiazine compounds for treating infections and cancer” (VALORALIA I MÁS D, SL, priority 2016, dated 2022):

Tests used:
[1] = tested on: N. cyriacigeorgica; experiment: Kirby-Bauer disk diffusion susceptibility test; assay type: cell-based
[2] = tested on: T. pulmonis; experiment: Kirby-Bauer disk diffusion susceptibility test; assay type: cell-based, Tsukamurella pulmonis
[3] = tested on: N. carnea; experiment: Kirby-Bauer disk diffusion susceptibility test; assay type: cell-based, Nocardia carnea
[4] = tested on: equine herpes virus type 1 (EHV-1); experiment: Viral titer reduction; assay type: cell-based; conditions: 10 μg/ml
[5] = tested on: M. chelonae; experiment: Kirby-Bauer disk diffusion susceptibility test; assay type: cell-based; conditions: M. chelonae strain 870, isolation year 2011
[6] = tested on: M. abscessus; experiment: Kirby-Bauer disk diffusion susceptibility test; further: key: I = intermediate activity; S = susceptibility; R = Resistance; assay type: cell-based, Mycobacterium abscessus; conditions: M. abscessus strain 690, isolation year 2012
[7] = tested on: M. fortuitum; experiment: Kirby-Bauer disk diffusion susceptibility test; further: key: I = intermediate activity; S = susceptibility; R = Resistance; assay type: cell-based; conditions: M. fortuitum strain 1080, isolation year 2011
[8] = tested on: S. aureus; experiment: Kirby-Bauer disk diffusion susceptibility test; assay type: cell-based, Staphylococcus aureus; further: key: I = intermediate activity; S = susceptibility; R = Resistance
[9] = tested on: S. epidermidis; experiment: Kirby-Bauer disk diffusion susceptibility test; assay type: cell-based, Staphylococcus epidermidis; further: key: I = intermediate activity; S = susceptibility; R = Resistance
[10] = tested on: B. cereus; experiment: Kirby-Bauer disk diffusion susceptibility test; assay type: cell-based, Bacillus cereus; further: key: I = intermediate activity; S = susceptibility; R = Resistance
[11] = tested on: A. baumannii; experiment: Kirby-Bauer disk diffusion susceptibility test; assay type: cell-based, Acinetobacter baumannii; further: key: I = intermediate activity; S = susceptibility; R = Resistance
[12] = tested on: C. parapsilosis; conditions: C. parapsilosis CP-007; cited from earlier work; further: key: I = intermediate activity; S = susceptibility; R = Resistance
[13] = tested on: A. flavus; conditions: A. flavus AF-001; cited from earlier work; further: key: I = intermediate activity; S = susceptibility; R = Resistance
[14] = tested on: A. fumigatus; conditions: A. fumigatus AFu-001; cited from earlier work; further: key: I = intermediate activity; S = susceptibility; R = Resistance
[15] = tested on: A. terreus; conditions: A. terreus ATe-001; cited from earlier work; further: key: I = intermediate activity; S = susceptibility; R = Resistance
[16] = N. cyriacigeorgica strain 30, isolation year 2005
[17] = N. cyriacigeorgica strain 199, isolation year 2005
[18] = T. pulmonis strain 40, isolation year 2015
[19] = T. pulmonis strain 1991, isolation year 2009
[20] = N. carnea strain 40, isolation year 2011
[21] = N. carnea strain 769, isolation year 2009
[22] = S. aureus strain 282, isolation year 2005
[23] = S. aureus strain 890, isolation year 2010
[24] = S. epidermidis strain 188, isolation year 2009
[25] = S. epidermidis strain 982, isolation year 2006
[26] = B. cereus strain 25, isolation year 2014
[27] = B. cereus strain 182, isolation year 2013
[28] = A. baumannii strain 300, isolation year 2001
[29] = A. baumannii strain 1301, isolation year 2009

Compound: CO/N=C(\C(=O)N[C@@H]1C(=O)N2C(C(=O)O)=C(COC(C)=O)CS[C@H]12)c1csc(N)n1 [CTX, Cefotaxime]
- Characteristics of strains: susceptibility or resistance [1, 16]: S
- Characteristics of strains: susceptibility or resistance [1, 17]: R
- Characteristics of strains: susceptibility or resistance [2, 18]: R
- Characteristics of strains: susceptibility or resistance [2, 19]: S
- Characteristics of strains: susceptibility or resistance [3, 20]: S
- Characteristics of strains: susceptibility or resistance [3, 21]: S

Compound: Nc1nc(O)c2ncn(COC(CO)CO)c2n1 [GCV, ganciclovir]
- reduction of the titer (inhibition) [4]: 1.8 logarithms

Compound: CC(=O)NC[C@H]1CN(c2ccc(N3CCOCC3)c(F)c2)C(=O)O1 [LIN, Linezolid]
- Characteristics of strains: susceptibility or resistance [1, 16]: S
- Characteristics of strains: susceptibility or resistance [1, 17]: S
- Characteristics of strains: susceptibility or resistance [5]: R
- Characteristics of strains: susceptibility or resistance [6]: S
- Characteristics of strains: susceptibility or resistance [7]: R
- Characteristics of strains: susceptibility or resistance [2, 18]: R
- Characteristics of strains: susceptibility or resistance [2, 19]: S
- Characteristics of strains: susceptibility or resistance [3, 20]: S
- Characteristics of strains: susceptibility or resistance [3, 21]: S

Compound: Gentamicin
- Characteristics of strains: susceptibility or resistance [8, 22]: R
- Characteristics of strains: susceptibility or resistance [8, 23]: R
- Characteristics of strains: susceptibility or resistance [9, 24]: S
- Characteristics of strains: susceptibility or resistance [9, 25]: R

Compound: CC[C@H]1OC(=O)[C@H](C)[C@@H](O[C@H]2C[C@@](C)(OC)[C@@H](O)[C@H](C)O2)[C@H](C)[C@@H](O[C@@H]2O[C@H](C)C[C@H](N(C)C)[C@H]2O)[C@](C)(O)C[C@@H](C)C(=O)[C@H](C)[C@@H](O)[C@]1(C)O [ERI, Erythromycin]
- Characteristics of strains: susceptibility or resistance [8, 22]: R
- Characteristics of strains: susceptibility or resistance [8, 23]: R
- Characteristics of strains: susceptibility or resistance [9, 24]: S
- Characteristics of strains: susceptibility or resistance [9, 25]: R
- Characteristics of strains: susceptibility or resistance [1, 16]: R
- Characteristics of strains: susceptibility or resistance [1, 17]: R
- Characteristics of strains: susceptibility or resistance [5]: R
- Characteristics of strains: susceptibility or resistance [6]: S
- Characteristics of strains: susceptibility or resistance [7]: R
- Characteristics of strains: susceptibility or resistance [2, 18]: R
- Characteristics of strains: susceptibility or resistance [2, 19]: S
- Characteristics of strains: susceptibility or resistance [10, 26]: R
- Characteristics of strains: susceptibility or resistance [10, 27]: R
- Characteristics of strains: susceptibility or resistance [3, 20]: R
- Characteristics of strains: susceptibility or resistance [3, 21]: R

Compound: NC[C@H]1O[C@H](O[C@H]2[C@H](O)[C@@H](O[C@H]3O[C@H](CO)[C@@H](O)[C@H](N)[C@H]3O)[C@H](N)C[C@@H]2N)[C@H](N)C[C@@H]1O [TOB, Tobramycin]
- Characteristics of strains: susceptibility or resistance [11, 28]: S
- Characteristics of strains: susceptibility or resistance [11, 29]: S

Compound: OC(Cn1cncn1)(Cn1cncn1)c1ccc(F)cc1F [Fluconazole]
- Characteristics of the strains: susceptibility class [12]: S
- Characteristics of the strains: susceptibility class [13]: R
- Characteristics of the strains: susceptibility class [14]: R
- Characteristics of the strains: susceptibility class [15]: R

Compound: Penicillin
- Characteristics of strains: susceptibility or resistance [6]: R
- Characteristics of strains: susceptibility or resistance [7]: R
- Characteristics of strains: susceptibility or resistance [10, 26]: S
- Characteristics of strains: susceptibility or resistance [10, 27]: S

Compound: CN(C)[C@@H]1C(O)=C(C(N)=O)C(=O)[C@@]2(O)C(O)=C3C(=O)c4c(O)cccc4[C@@](C)(O)[C@H]3C[C@@H]12 [TET, Tetracycline]
- Characteristics of strains: susceptibility or resistance [8, 22]: S
- Characteristics of strains: susceptibility or resistance [8, 23]: R
- Characteristics of strains: susceptibility or resistance [9, 24]: S
- Characteristics of strains: susceptibility or resistance [9, 25]: S
- Characteristics of strains: susceptibility or resistance [10, 26]: R
- Characteristics of strains: susceptibility or resistance [10, 27]: S

Compound: C[C@@H](O)[C@H]1C(=O)N2C(C(=O)O)=C(SCCN=CN)C[C@H]12 [IMP, Imipenem]
- Characteristics of strains: susceptibility or resistance [1, 16]: S
- Characteristics of strains: susceptibility or resistance [1, 17]: R
- Characteristics of strains: susceptibility or resistance [11, 28]: R
- Characteristics of strains: susceptibility or resistance [11, 29]: S
- Characteristics of strains: susceptibility or resistance [5]: R
- Characteristics of strains: susceptibility or resistance [6]: R
- Characteristics of strains: susceptibility or resistance [7]: R
- Characteristics of strains: susceptibility or resistance [2, 18]: S
- Characteristics of strains: susceptibility or resistance [2, 19]: S
- Characteristics of strains: susceptibility or resistance [3, 20]: R
- Characteristics of strains: susceptibility or resistance [3, 21]: S

Compound: CC(=O)N1CCN(c2ccc(OCC3COC(Cn4ccnc4)(c4ccc(Cl)cc4Cl)O3)cc2)CC1 (stereo not shown) [Ketoconazole]
- Characteristics of the strains: susceptibility class [12]: S
- Characteristics of the strains: susceptibility class [13]: S
- Characteristics of the strains: susceptibility class [14]: S
- Characteristics of the strains: susceptibility class [15]: S

Compound: CO[C@H]1/C=C/O[C@@]2(C)Oc3c(C)c(O)c4c(O)c(c(/C=N/N5CCN(C)CC5)c(O)c4c3C2=O)NC(=O)/C(C)=C\C=C\[C@H](C)[C@H](O)[C@@H](C)[C@@H](O)[C@@H](C)[C@H](OC(C)=O)[C@@H]1C [RIF, Rifampicin]
- Characteristics of strains: susceptibility or resistance [10, 26]: S
- Characteristics of strains: susceptibility or resistance [10, 27]: S

Compound: NCC[C@H](O)C(=O)N[C@@H]1C[C@H](N)[C@@H](O[C@H]2O[C@H](CN)[C@@H](O)[C@H](O)[C@H]2O)[C@H](O)[C@H]1O[C@H]1O[C@H](CO)[C@@H](O)[C@H](N)[C@H]1O [AMK, Amikacin]
- Characteristics of strains: susceptibility or resistance [8, 22]: S
- Characteristics of strains: susceptibility or resistance [8, 23]: S
- Characteristics of strains: susceptibility or resistance [9, 24]: S
- Characteristics of strains: susceptibility or resistance [9, 25]: S
- Characteristics of strains: susceptibility or resistance [1, 16]: S
- Characteristics of strains: susceptibility or resistance [1, 17]: R
- Characteristics of strains: susceptibility or resistance [11, 28]: R
- Characteristics of strains: susceptibility or resistance [11, 29]: S
- Characteristics of strains: susceptibility or resistance [2, 18]: R
- Characteristics of strains: susceptibility or resistance [2, 19]: S
- Characteristics of strains: susceptibility or resistance [3, 20]: R
- Characteristics of strains: susceptibility or resistance [3, 21]: S

Compound: C[C@@H](O)[C@H]1C(=O)N2C(C(=O)O)=C(S[C@@H]3CN[C@H](C(=O)N(C)C)C3)[C@H](C)[C@H]12 [MER, Meropenem]
- Characteristics of strains: susceptibility or resistance [11, 28]: R
- Characteristics of strains: susceptibility or resistance [11, 29]: S

Compound: CN[C@H](CC(C)C)C(=O)N[C@H]1C(=O)N[C@@H](CC(N)=O)C(=O)N[C@H]2C(=O)N[C@H]3C(=O)N[C@H](C(=O)N[C@H](C(=O)O)c4cc(O)cc(O)c4-c4cc3ccc4O)[C@H](O)c3ccc(c(Cl)c3)Oc3cc2cc(c3O[C@@H]2O[C@H](CO)[C@@H](O)[C@H](O)[C@H]2O[C@H]2C[C@](C)(N)[C@H](O)[C@H](C)O2)Oc2ccc(cc2Cl)[C@H]1O [VAN, Vancomycin]
- Characteristics of strains: susceptibility or resistance [8, 22]: S
- Characteristics of strains: susceptibility or resistance [8, 23]: S
- Characteristics of strains: susceptibility or resistance [9, 24]: S
- Characteristics of strains: susceptibility or resistance [9, 25]: S
- Characteristics of strains: susceptibility or resistance [10, 26]: S
- Characteristics of strains: susceptibility or resistance [10, 27]: S

Compound: CO/N=C(\C(=O)N[C@@H]1C(=O)N2C(C(=O)O)=C(CSc3nc(=O)c(O)nn3C)CS[C@H]12)c1csc(N)n1 [CEF, Ceftriazone]
- Characteristics of strains: susceptibility or resistance [11, 28]: R
- Characteristics of strains: susceptibility or resistance [11, 29]: R

Compound: Clc1ccccc1C(c1ccccc1)(c1ccccc1)n1ccnc1 [Clotrimazole]
- Characteristics of the strains: susceptibility class [12]: S
- Characteristics of the strains: susceptibility class [13]: S
- Characteristics of the strains: susceptibility class [14]: S
- Characteristics of the strains: susceptibility class [15]: S

Compound: CCC[C@@H]1C[C@@H](C(=O)N[C@@H]([C@H]2O[C@H](SC)[C@H](O)[C@@H](O)[C@H]2O)[C@H](C)Cl)N(C)C1 [CLI, Clindamycin]
- Characteristics of strains: susceptibility or resistance [8, 22]: R
- Characteristics of strains: susceptibility or resistance [8, 23]: R
- Characteristics of strains: susceptibility or resistance [9, 24]: S
- Characteristics of strains: susceptibility or resistance [9, 25]: R
- Characteristics of strains: susceptibility or resistance [10, 26]: R
- Characteristics of strains: susceptibility or resistance [10, 27]: R
